According to ChEMBL document CHEMBL3862039 (ACS Med Chem Lett, 2016):
Positions count from the first letter of the chain named. Active and inactive are the calls of the source. The rule behind the calls is not given here.

Assays:
[1] = target: T1, Androgen receptor (Homo sapiens) (UniProt P10275); conditions: LNCaP, at 5 µM
T1 sequence (whole entry): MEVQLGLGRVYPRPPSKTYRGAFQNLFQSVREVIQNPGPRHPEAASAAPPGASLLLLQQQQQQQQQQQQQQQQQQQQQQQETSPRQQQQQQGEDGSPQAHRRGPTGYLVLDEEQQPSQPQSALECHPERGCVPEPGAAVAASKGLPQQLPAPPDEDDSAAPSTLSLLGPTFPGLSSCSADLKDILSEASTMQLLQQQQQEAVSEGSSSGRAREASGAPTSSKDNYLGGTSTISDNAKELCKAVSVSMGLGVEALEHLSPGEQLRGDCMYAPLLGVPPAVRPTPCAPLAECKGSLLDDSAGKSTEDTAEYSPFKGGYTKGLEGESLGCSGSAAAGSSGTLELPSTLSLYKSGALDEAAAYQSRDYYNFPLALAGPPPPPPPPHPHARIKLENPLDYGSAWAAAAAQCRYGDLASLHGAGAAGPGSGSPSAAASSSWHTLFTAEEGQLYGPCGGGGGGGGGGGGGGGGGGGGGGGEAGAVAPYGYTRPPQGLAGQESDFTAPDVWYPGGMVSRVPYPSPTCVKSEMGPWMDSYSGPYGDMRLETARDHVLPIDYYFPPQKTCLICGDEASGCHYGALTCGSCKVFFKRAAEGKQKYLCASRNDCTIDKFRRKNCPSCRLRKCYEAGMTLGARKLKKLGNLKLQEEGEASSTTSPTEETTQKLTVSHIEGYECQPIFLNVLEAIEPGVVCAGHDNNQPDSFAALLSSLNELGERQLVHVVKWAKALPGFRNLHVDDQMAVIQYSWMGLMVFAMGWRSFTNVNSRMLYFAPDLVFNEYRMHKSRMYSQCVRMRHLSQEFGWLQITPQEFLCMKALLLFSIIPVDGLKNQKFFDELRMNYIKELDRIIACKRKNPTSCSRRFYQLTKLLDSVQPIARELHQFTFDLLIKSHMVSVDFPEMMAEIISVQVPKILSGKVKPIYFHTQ
Description: Antagonist activity at AR in human LNCAP cells assessed as suppression of DHT-induced receptor transcriptional activity at 5 uM after 24 hrs by dual luciferase reporter gene assay

[2] = target: T1, Androgen receptor (Homo sapiens); test: Antagonist activity at AR in human LNCAP cells assessed as suppression of DHT-induced receptor transcriptional activity at 500 nM after 24 hrs by dual luciferase reporter gene assay; type: cell-based
PC-3 [3] = test: Agonist activity at AR W741C/T877A double mutant (unknown origin) expressed in human PC3 cells assessed as receptor transactivation at 5 uM after 24 hrs by PSA-luciferase reporter gene assay; type: cell-based
Androgen receptor [4] = target: Androgen receptor (Homo sapiens, UniProt P10275, T878A); test: (§1) Antagonist activity at AR T877A mutant (unknown origin) transfected in human PC3 cells assessed as inhibition of DHT-induced receptor transcriptional activation after 24 hrs by PSA-luciferase reporter gene assay; type: cell-based, PC-3
Chain of Androgen receptor (Homo sapiens, UniProt P10275, T878A) (P10275 whole entry T878A): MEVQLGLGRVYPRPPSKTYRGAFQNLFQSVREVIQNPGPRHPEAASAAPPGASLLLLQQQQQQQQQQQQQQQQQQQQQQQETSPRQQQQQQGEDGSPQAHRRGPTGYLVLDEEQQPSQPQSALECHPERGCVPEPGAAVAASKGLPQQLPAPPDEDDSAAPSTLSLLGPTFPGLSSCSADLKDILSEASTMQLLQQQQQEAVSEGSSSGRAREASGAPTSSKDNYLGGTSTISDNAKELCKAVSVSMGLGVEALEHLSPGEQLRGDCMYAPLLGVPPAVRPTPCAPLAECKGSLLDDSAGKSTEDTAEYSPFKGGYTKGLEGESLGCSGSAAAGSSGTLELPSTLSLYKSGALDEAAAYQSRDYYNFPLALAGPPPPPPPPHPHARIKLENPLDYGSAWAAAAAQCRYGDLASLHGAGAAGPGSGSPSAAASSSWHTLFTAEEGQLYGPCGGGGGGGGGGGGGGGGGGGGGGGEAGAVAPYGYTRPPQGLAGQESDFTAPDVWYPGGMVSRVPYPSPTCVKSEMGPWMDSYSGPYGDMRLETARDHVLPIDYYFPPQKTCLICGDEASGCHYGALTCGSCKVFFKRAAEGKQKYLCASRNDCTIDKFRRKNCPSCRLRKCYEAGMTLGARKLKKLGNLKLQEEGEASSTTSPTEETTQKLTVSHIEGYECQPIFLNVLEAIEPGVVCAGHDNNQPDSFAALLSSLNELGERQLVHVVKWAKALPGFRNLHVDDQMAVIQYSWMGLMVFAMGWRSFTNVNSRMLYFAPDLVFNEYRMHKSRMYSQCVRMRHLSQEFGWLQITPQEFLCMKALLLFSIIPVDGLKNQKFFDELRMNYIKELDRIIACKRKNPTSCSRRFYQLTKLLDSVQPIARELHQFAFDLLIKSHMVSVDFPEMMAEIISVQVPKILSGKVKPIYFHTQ

[5] = tested on: Androgen receptor (Homo sapiens), P10275 [T878A]; test: as §1; type: cell-based; conditions: PC-3
Chain of Androgen receptor (Homo sapiens), P10275 [T878A] (P10275 whole entry T878A): as above

[6] = target: T1, Androgen receptor (Homo sapiens); test: Antagonist activity at AR in human LNCAP cells assessed as downregulation of PSA mRNA levels at 5 uM after 24 hrs in presence of DHT by RT-PCR analysis; type: cell-based
[7] = target: T1, Androgen receptor (Homo sapiens); test: Antagonist activity at AR in human LNCAP cells assessed as downregulation of AR protein expression after 24 hrs by Western blot analysis; type: cell-based
[8] = tested on: T2, Androgen receptor (Homo sapiens), P10275 [F877L]; test: Antagonist activity at AR F876L mutant (unknown origin) transfected in human PC3 cells assessed as suppression of DHT-induced receptor transcriptional activity at 500 nM after 24 hrs by PSA-luciferase reporter gene assay; type: cell-based; conditions: PC-3
T2 sequence (whole entry): T1 sequence (whole entry) with F877L

cells = conditions: Homo sapiens, PC-3, 24 h
Description: Antagonist activity at AR W741C/T877A double mutant (unknown origin) transfected in human PC3 cells assessed as inhibition of DHT-induced receptor transcriptional activation after 24 hrs by PSA-luciferase reporter gene assay

[9] = target: T1, Androgen receptor (Homo sapiens); test: Antagonist activity at AR in human LNCAP cells assessed as downregulation of PSA mRNA levels at 500 nM after 24 hrs in presence of DHT by RT-PCR analysis; type: cell-based
LNCaP = test: Cytotoxicity against human LNCAP cells assessed as cell growth inhibition after 72 hrs by MTT assay; type: functional, cell-based
[10] = target: T1, Androgen receptor (Homo sapiens); test: (§2) Antagonist activity at wild type AR in human PC3 cells assessed as suppression of DHT-induced receptor transcriptional activation after 24 hrs by PSA-luciferase reporter gene assay; type: cell-based; conditions: PC-3
Androgen receptor [11] = target: T3, Androgen receptor (Homo sapiens, UniProt P10275); test: as §2; type: cell-based, PC-3
T3 sequence (P10275 whole entry): T1 sequence (whole entry)

PC-3 [12] = test: Cytotoxicity against human PC3 cells assessed as cell growth inhibition after 72 hrs by MTT assay; type: functional, cell-based
[13] = tested on: T2, Androgen receptor (Homo sapiens), P10275 [F877L]; test: (§3) Antagonist activity at AR F876L mutant (unknown origin) expressed in human PC3 cells assessed as inhibition of DHT-induced receptor transactivation after 24 hrs by PSA-luciferase reporter gene assay; type: cell-based; conditions: PC-3
Androgen receptor [14] = target: Androgen receptor (Homo sapiens, UniProt P10275, F877L); test: as §3; type: cell-based, PC-3
Chain of Androgen receptor (Homo sapiens, UniProt P10275, F877L) (P10275 whole entry F877L, the tested form may be a part): as the sequence (P10275 whole entry T878A) above, with F877L, A878T counted along it

Androgen receptor [15] = target: T4, Androgen receptor (Rattus norvegicus, UniProt P15207); test: (§4) Displacement of fluormone-DHT green from His/GST-tagged rat AR ligand binding domain after 4 to 8 hrs by fluorescence polarization assay
T4 sequence (P15207 whole entry): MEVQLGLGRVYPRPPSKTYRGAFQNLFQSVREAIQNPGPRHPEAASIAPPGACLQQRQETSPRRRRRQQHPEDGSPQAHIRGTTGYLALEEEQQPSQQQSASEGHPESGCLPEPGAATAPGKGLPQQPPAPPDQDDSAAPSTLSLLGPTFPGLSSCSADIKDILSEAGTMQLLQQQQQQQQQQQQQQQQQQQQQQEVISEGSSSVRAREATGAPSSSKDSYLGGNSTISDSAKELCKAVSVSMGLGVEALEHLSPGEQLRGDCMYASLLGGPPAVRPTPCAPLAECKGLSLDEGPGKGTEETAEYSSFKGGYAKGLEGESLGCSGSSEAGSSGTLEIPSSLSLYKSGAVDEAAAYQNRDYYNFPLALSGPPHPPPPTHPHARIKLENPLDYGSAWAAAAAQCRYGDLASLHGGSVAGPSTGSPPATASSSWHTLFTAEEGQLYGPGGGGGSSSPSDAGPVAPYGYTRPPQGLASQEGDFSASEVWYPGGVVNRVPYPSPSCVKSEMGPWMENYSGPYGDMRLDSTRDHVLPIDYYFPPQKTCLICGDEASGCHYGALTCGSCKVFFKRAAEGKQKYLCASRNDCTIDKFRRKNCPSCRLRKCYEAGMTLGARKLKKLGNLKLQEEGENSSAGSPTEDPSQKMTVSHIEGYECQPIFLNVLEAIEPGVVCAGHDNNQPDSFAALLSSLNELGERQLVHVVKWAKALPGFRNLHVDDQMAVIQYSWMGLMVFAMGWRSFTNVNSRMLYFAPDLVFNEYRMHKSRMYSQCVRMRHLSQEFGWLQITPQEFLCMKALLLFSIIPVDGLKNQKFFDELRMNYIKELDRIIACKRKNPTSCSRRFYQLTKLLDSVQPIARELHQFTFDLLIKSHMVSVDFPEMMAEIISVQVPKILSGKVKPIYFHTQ

[16] = target: T5, Androgen receptor (Rattus norvegicus) (UniProt P15207); test: as §4
T5 sequence (whole entry): T4 sequence (P15207 whole entry)

## CC(C)[C@]12O[C@H]1[C@@H]1O[C@@]13[C@@]1(C)CCC4=C(COC4=O)[C@@H]1C[C@@H]1O[C@@]13C2=O
[1]
  inhibition: Active
[2]
  inhibition: Active

## CC(C)[C@]12O[C@H]1[C@@H]1O[C@]13[C@]1(O[C@H]1C[C@H]1C4=C(CC[C@@]13C)C(=O)OC4)[C@@H]2O
[1]
  inhibition: Active
[2]
  inhibition: Active

## CC(O)(CS(=O)(=O)c1ccc(F)cc1)C(=O)Nc1ccc(C#N)c(C(F)(F)F)c1 (stereo not given)
PC-3 [3]
  Activity: Active

## CC1(C)[C@@H](O)CC[C@]2(C)[C@H]3CC=C4[C@@H]5C[C@@]6(C)C[C@H](OC6=O)[C@]5(C)CC[C@@]4(C)[C@]3(C)CC[C@@H]12
[1]
  inhibition: Active

## CC1=C(O)C(=O)C=C2C1=CC=C1[C@@]2(C)CC[C@@]2(C)[C@@H]3C[C@](C)(C(=O)O)CC[C@]3(C)CC[C@]12C
[1]
  inhibition: Active

## C[C@@]1(C(=O)O)CC[C@]2(C)CC[C@]3(C)C4=CC(=O)c5c(cc(O)c(O)c5C=O)[C@]4(C)CC[C@@]3(C)[C@@H]2C1
[1]
  inhibition: Active

## CC(C)c1ccc2c(c1O)CC[C@H]1C3=C(CC[C@]21C)C(=O)OC3 [TRIPTOPHENOLIDE]
Androgen receptor [4]
  IC50: 388 nM
[5]
  inhibition: Dose-dependent effect
[6]
  inhibition: Active
[7]
  inhibition: Dose-dependent effect
[1]
  inhibition: Active
[8]
  inhibition: Active
cells
  IC50: 437 nM
[9]
  inhibition: Active
[2]
  inhibition: Active
LNCaP
  growth inhibition (GI): Dose-dependent effect
[10]
  inhibition: Dose-dependent effect
Androgen receptor [11]
  IC50: 260 nM
PC-3 [12]
  growth inhibition (GI): Active
[13]
  inhibition: Dose-dependent effect
Androgen receptor [14]
  IC50: 480 nM
Androgen receptor [15]
  IC50: 467 nM
[16]
  inhibition: Dose-dependent effect
